{"source": "patent US6514956B1", "about": "“Steroids, their preparation, pharmaceutical compositions thereof and uses of the compounds” (Shanghai Zhongxi Pharmaceutical Co., Ltd., priority 1999, dated 2003)", "key": {"[1]": {"details": "compared with mifepristone; reported in Human Reproduction 1994; cited from earlier work"}, "[2]": {"test_system": "MNU-induced rat mammary cancer", "assay": "Inhibition of MNU-induced rat mammary cancer", "type": "in vivo, Sprague-Dawley rats", "details": "30 days", "protocol": "Sprague-Dawley rats which are 5-7 weeks old and weighing 90-120 g were treated with an amount of carcinogenic chemical (MNU, commercially available) to induce rat mammary cancer and were divided into a group with cancer-induction alone, a group with mifepristone and two treatment groups with the compound of formula (VI). Each group except for the group with cancer-induction alone was endogastrically administrated with corresponding dose one time per day. After 30 days, the animals were sacrificed by decapitation. Indices such as body weight and tumor weight of each group of the animals were compared. The mean value of the groups was calculated and the rate of tumor growth inhibition derived. Rate of tumor inhibition %=(mean value of the group with cancer-induction alone−mean value of the treatment group)/mean value of the group with cancer-induction alone×100%"}, "[3]": {"test_system": "pregnant rats, gravidity d7-9", "assay": "Effect in stopping early pregnancy in rats", "type": "in vivo, Sprague-Dawley rats", "details": "for early pregnancy-stopping effect: rats of gravidity d7-9", "protocol": "Both sexes of Sprague-Dawley rats were placed into a cage and were allowed to copulate. […] Pregnant rats were randomly divided into 11 groups of 10. The control group was administrated with 0.5% CMC-Na solution. 6 Groups were administered with the compound of formula (VI) at doses of 2.0, 1.6, 1.28, 1.02, 0.82 and 0.66 mg/kg respecticely. 4 Groups were administered with Mifepristone at doses of 3.5, 2.45, 1.72 and 1.2 mg/kg respectively. The groups were administered endogastrically once a day (dose 2 ml/kg) for 3 consecutive days starting from gradivity d7. Animals in which ecolporrhagia was not detected and no signs of embryo implantation were found on dissection examination were considered as not pregnant and were not counted. The animals were sacrificed and laparotomized on gradivity d14 and the numbers of living embryos, dead embryos, implantation sites and yellow bodies in the uterus were counted. The number of the pregnant animals were counted and compared with that of the control group. ED50 of the two test drugs and its credibility interval was calculated with Bliss's method."}, "[4]": {"test_system": "pregnant rats, gravidity d1-4", "assay": "Anti-implantation effect in rat", "type": "in vivo, Sprague-Dawley rats", "details": "endogastric once a day for 4 days from gravidity d1, Bliss's method", "protocol": "Both sexes of Sprague-Dawley rats were placed into a cage and were allowed to copulate. […] Pregnant rats were randomly divided into 10 groups of 10. The control group was administered with 0.5% CMC-Na solution. 5 Groups were administered with the compound of formula (VI) and 4 groups were administered with Mifepristone. The groups were administered endogastrically once a day for 4 consecutive days starting from gradivity d1. The groups of animals were laparotomized on gradivity d14 and their uterus examined. The number of pregnant animals was counted. ED50 of the two drugs was calculated with Bliss's method."}, "[5]": {"test_system": "Human mammary cancer cells T47D", "assay": "MTT test of killing tumor cells, T47D", "type": "cell-based", "details": "4-6 days incubation", "protocol": "(§1) Human mammary cancer cells (MCF-7, T47D, commercially available) were prepared as 1×10^4/ml cell suspension in RPMI 1640 medium containing 10% calf serum and used to inoculate a 96-well plate at 100 μl/well. The plate was incubated for 24 hours in an incubator in 5% CO2 at 37° C. Two experimental groups each receiving compound of formula (VI) or Mifepristone (commercially available) (triplicate well/group each receiving 100 μl RPMI 1640 medium containing various concentrations of drug) and a control group (each well receiving RPMI medium containing equal volume of solvent) were incubated for 4-6 days in an incubator in 5% CO2 at 37° C. The cultural supernatant was discarded and 0.04% 100 μl MTT prepared with RPMI 1640 was added into each well. Incubation was carried out at 37° C. for 4 hours. The supernatant was discarded and 150 μl dimethyl sulfoxide was added into each well to dissolve Fomazan particles. After being shaked slightly, OD value was measured using a Model 550 Enzyme Labelling Equipment at a wavelength of 540 nm. The rate of inhibition of cells was graphed against the various concentrations of the drug to produce a dosage response curve from which 50% inhibiting concentration IC50 was derived."}, "[6]": {"test_system": "Human mammary cancer cells MCF-7", "assay": "MTT test of killing tumor cells, MCF-7", "type": "cell-based", "details": "4-6 days incubation", "protocol": "as §1"}, "[7]": {"target": "T1, progesterone receptor in rabbit endometrium (Oryctolagus cuniculus, UniProt P06186)", "T1 construct": "progesterone receptor in rabbit endometrium; host or cells: rabbit endometrium (tissue)", "T1 sequence (P06186 1-930)": "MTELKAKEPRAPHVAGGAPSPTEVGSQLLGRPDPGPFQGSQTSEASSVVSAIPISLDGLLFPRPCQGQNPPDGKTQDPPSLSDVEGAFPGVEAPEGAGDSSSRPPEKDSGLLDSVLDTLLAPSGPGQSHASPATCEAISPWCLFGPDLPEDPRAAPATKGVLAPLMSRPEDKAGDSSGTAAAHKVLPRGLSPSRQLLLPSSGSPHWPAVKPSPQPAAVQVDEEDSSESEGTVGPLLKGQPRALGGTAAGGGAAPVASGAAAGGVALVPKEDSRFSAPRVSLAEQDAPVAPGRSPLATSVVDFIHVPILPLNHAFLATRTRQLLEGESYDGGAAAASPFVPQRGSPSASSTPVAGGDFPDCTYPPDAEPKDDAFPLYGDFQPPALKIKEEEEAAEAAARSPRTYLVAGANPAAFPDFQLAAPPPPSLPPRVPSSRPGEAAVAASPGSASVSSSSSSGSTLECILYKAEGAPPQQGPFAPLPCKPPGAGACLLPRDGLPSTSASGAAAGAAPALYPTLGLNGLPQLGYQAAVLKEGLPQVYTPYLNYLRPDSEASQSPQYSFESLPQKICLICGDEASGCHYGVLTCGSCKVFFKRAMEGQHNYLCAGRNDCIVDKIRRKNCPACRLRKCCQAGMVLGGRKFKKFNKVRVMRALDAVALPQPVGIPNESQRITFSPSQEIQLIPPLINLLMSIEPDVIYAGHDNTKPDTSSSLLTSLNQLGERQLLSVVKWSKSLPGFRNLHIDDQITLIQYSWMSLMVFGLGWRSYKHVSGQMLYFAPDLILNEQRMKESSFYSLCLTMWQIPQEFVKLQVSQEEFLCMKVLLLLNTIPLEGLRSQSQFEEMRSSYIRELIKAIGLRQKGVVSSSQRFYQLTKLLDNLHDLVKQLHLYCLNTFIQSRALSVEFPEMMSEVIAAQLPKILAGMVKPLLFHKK", "details": "cited from earlier work"}, "[8]": {"details": "reported in European Journal of Cancer 1999; cited from earlier work"}}, "data": [{"smiles": "CN(C)c1ccc([C@H]2C[C@@]3(C)[C@@H](CC[C@@]3(O)/C=C\\CO)[C@@H]3CCC4=CC(=O)CCC4=C32)cc1", "note": "[Lilopristone, 11β-[4-(N,N-dimethylamino)phenyl]-17α-[3-hydroxy-1(Z)-propenyl]-17β-hydroxy-4,9-estradiene-3-one]", "values": [{"measurement": "clinical effect in stopping early pregnancy", "setting": "[1]", "result": "only equivalent to that of mifepristone"}]}, {"smiles": "CC#C[C@]1(O)CC[C@H]2[C@@H]3CCC4=CC(=O)CCC4=C3[C@@H](c3ccc(N(C)C)cc3)C[C@@]21C", "note": "[Mifepristone, 11β-[4-(N,N-dimethylamino)phenyl]-17α-(1-propinyl)-17β-hydroxy-4,9-estradiene-3-one]", "values": [{"measurement": "Inhibition (%) of tumor growth", "setting": "[2]; 40 mg/kg endogastrically once per day", "result": 72.1, "unit": "%"}, {"measurement": "early pregnancy-stopping effect", "setting": "[3]; 3.5 mg/kg", "result": "complete early pregnancy-stopping effect"}, {"measurement": "ED50", "setting": "[3]; Rattus norvegicus, 72 h, rats, endogastric once a day for 3 days from gravidity d7, Bliss's method, credibility interval in brackets", "result": "2.12 ± 0.447", "unit": "mg/kg"}, {"measurement": "ED50", "setting": "[4]; Rattus norvegicus, 96 h", "result": "6.69 ± 1.55", "unit": "mg/kg"}, {"measurement": "IC50", "setting": "[5]; Homo sapiens", "result": "11 ± 9.03", "unit": "µM"}, {"measurement": "IC50", "setting": "[6]; Homo sapiens, MCF7, MCF-7 cells", "result": "10.8 ± 8.1", "unit": "µM"}, {"measurement": "affinity with progesterone receptor compared with progesterone", "setting": "[7]", "result": "five-fold higher than that of progesterone"}]}, {"smiles": "CN(C)c1ccc([C@H]2C[C@]3(C)[C@@H](CC[C@]3(O)CCCO)[C@@H]3CCC4=CC(=O)CCC4=C32)cc1", "note": "[Onapristone, 11β-[4-(N,N-dimethylamino)phenyl]-17α-hydroxy-17β-(3-hydroxypropyl)-13α-4,9-estradiene-3-one]", "values": [{"measurement": "toxicity to human liver", "setting": "[8]", "result": "had toxicity to human liver"}]}, {"smiles": "CC#CC1(O)CCC2C3CCC4=CC(=O)CCC4=C3C(c3ccc(N(C)C4CCCCC4)cc3)CC21C", "note": "(stereo not drawn) [compound of formula (VI), 11β-[4-(N-methyl-N-cyclohexylamino)phenyl]-17α-(1-propinyl)-17β-hydroxy-4,9-estradiene-3-one]", "values": [{"measurement": "Inhibition (%) of tumor growth", "setting": "[2]; 10 mg/kg endogastrically once per day", "result": 50.4, "unit": "%"}, {"measurement": "Inhibition (%) of tumor growth", "setting": "[2]; 20 mg/kg endogastrically once per day", "result": 89.3, "unit": "%"}, {"measurement": "early pregnancy-stopping effect", "setting": "[3]; 2 mg/kg/day", "result": "complete early pregnancy-stopping effect"}, {"measurement": "ED50, early pregnancy-stopping effect", "setting": "[3]; rats, endogastric once a day for 3 days from gravidity d7, Bliss's method, credibility interval in brackets", "result": "1.1439 ± 0.1590", "unit": "mg/kg"}, {"measurement": "anti-implantation ED50", "setting": "[4]", "result": "2.3409 ± 0.6191", "unit": "mg/kg"}, {"measurement": "IC50", "setting": "[5]", "result": "6.4 ± 3.15", "unit": "µM"}, {"measurement": "IC50", "setting": "[6]; MCF-7 cells", "result": "5.5 ± 0.72", "unit": "µM"}]}]}
